According to ChEMBL document CHEMBL1201862, “PubChem BioAssay data set” (2004):
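These data come from cells grown in 96-well plates and exposed to compound for 48 hours at five concentrations. Here, GI50 denotes the concentration required for 50% inhibition of growth.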 Activity calls are given as the source filed them. No stated cut-off is given here; in the data, active = GI50 up to about 1.1 µM and inactive = higher.

What was measured:
Assay in all cases: DTP human tumour cell line panel, 48 h
[1] = tested on: ACHN
[2] = tested on: CAKI-1
[3] = tested on: NCI-H226
[4] = tested on: Hs-578T
[5] = tested on: UACC-62
[6] = tested on: NCI/ADR-RES
[7] = tested on: MCF7
[8] = tested on: MDA-MB-435
[9] = tested on: OVCAR-3
[10] = tested on: OVCAR-4
[11] = tested on: HCC 2998
[12] = tested on: U-251
[13] = tested on: HOP-92
[14] = tested on: HL-60
[15] = tested on: SN12C
[16] = tested on: NCI-H23
[17] = tested on: RPMI-8226
[18] = tested on: UO-31
[19] = tested on: SNB-19
[20] = tested on: CCRF-CEM
[21] = tested on: HCT-15
[22] = tested on: NCI-H522
[23] = tested on: SF-295
[24] = tested on: HOP-62
[25] = tested on: T47D
[26] = tested on: Malme-3M
[27] = tested on: PC-3
[28] = tested on: SK-MEL-28
[29] = tested on: HT-29
[30] = tested on: OVCAR-5
[31] = tested on: COLO 205
[32] = tested on: MDA-N
[33] = tested on: NCI-H460
[34] = tested on: RXF 393
[35] = tested on: SK-MEL-2
[36] = tested on: SF-539
[37] = tested on: SK-MEL-5
[38] = tested on: HCT-116
[39] = tested on: BT-549
[40] = tested on: DU-145
[41] = tested on: K562
[42] = tested on: OVCAR-8
[43] = tested on: IGROV-1
[44] = tested on: SK-OV-3
[45] = tested on: MOLT-4
[46] = tested on: EKVX
[47] = tested on: TK-10
[48] = tested on: LOX IMVI
[49] = tested on: A498
[50] = tested on: KM12
[51] = tested on: SW-620
[52] = tested on: UACC-257
[53] = tested on: M14
[54] = tested on: SF-268
[55] = tested on: 786-0
[56] = tested on: MDA-MB-231
[57] = tested on: SNB-75
[58] = tested on: SR
[59] = tested on: A549

Compound: CC1(c2ccc(Cl)cc2)N=C(NCCO)c2ccccc21 (stereo not given)
- GI50 [1]: 29.4 µM (inactive)
- GI50 [2]: > 71 µM (inactive)
- GI50 [3]: 11.1 µM (inactive)
- GI50 [4]: 37.8 µM (inactive)
- GI50 [5]: 12 µM (inactive)
- GI50 [6]: 99.5 µM (inactive)
- GI50 [7]: 20.7 µM (inactive)
- GI50 [8]: 12.2 µM (inactive)
- GI50 [9]: 56.1 µM (inactive)
- GI50 [10]: 67.9 µM (inactive)
- GI50 [11]: 12.2 µM (inactive)
- GI50 [12]: 16.9 µM (inactive)
- GI50 [13]: 8.53 µM (inactive)
- GI50 [14]: 3.23 µM (inactive)
- GI50 [15]: 16.9 µM (inactive)
- GI50 [16]: 13.8 µM (inactive)
- GI50 [17]: 2.74 µM (inactive)
- GI50 [18]: 17.8 µM (inactive)
- GI50 [19]: 14.7 µM (inactive)
- GI50 [20]: 2.9 µM (inactive)
- GI50 [21]: 26.9 µM
- GI50 [22]: 26.4 µM (inactive)
- GI50 [23]: 8.36 µM (inactive)
- GI50 [24]: 25.1 µM (inactive)
- GI50 [25]: 15.9 µM (inactive)
- GI50 [26]: 17.9 µM (inactive)
- GI50 [27]: 32.7 µM (inactive)
- GI50 [28]: 9.75 µM (inactive)
- GI50 [29]: 5.74 µM (inactive)
- GI50 [30]: 19.2 µM (inactive)
- GI50 [31]: 13.5 µM (inactive)
- GI50 [32]: 10.7 µM (inactive)
- GI50 [33]: 13.3 µM (inactive)
- GI50 [34]: 16.3 µM (inactive)
- GI50 [35]: 18.2 µM (inactive)
- GI50 [36]: 2.25 µM (inactive)
- GI50 [37]: 14.8 µM (inactive)
- GI50 [38]: 5.37 µM (inactive)
- GI50 [39]: 42 µM (inactive)
- GI50 [40]: 2.07 µM (inactive)
- GI50 [41]: 6.61 µM (inactive)
- GI50 [42]: 51.8 µM (inactive)
- GI50 [43]: 22.9 µM (inactive)
- GI50 [44]: 88.7 µM (inactive)
- GI50 [45]: 8.49 µM (inactive)
- GI50 [46]: > 100 µM (inactive)
- GI50 [47]: 41.4 µM (inactive)
- GI50 [48]: 13.8 µM (inactive)
- GI50 [49]: 18.6 µM (inactive)
- GI50 [50]: 15.7 µM (inactive)
- GI50 [51]: 10.5 µM (inactive)
- GI50 [52]: 17.1 µM (inactive)
- GI50 [53]: 9.84 µM (inactive)
- GI50 [54]: 42.9 µM (inactive)
- GI50 [55]: 12.5 µM (inactive)
- GI50 [56]: 19.1 µM (inactive)
- GI50 [57]: 19.5 µM (inactive)
- GI50 [58]: 16.4 µM (inactive)
- GI50 [59]: 23.7 µM (inactive)

Compound: O=C1c2ccc3cc(CCl)cc(O)c3c2C(=O)c2cccc(O)c21
- GI50 [1]: 2.91 µM (inactive)
- GI50 [2]: > 10 µM (inactive)
- GI50 [3]: 2.7 µM (inactive)
- GI50 [4]: > 10 µM (inactive)
- GI50 [5]: 1.22 µM (inactive)
- GI50 [6]: 2.02 µM (inactive)
- GI50 [7]: 0.729 µM (active)
- GI50 [8]: 0.179 µM (active)
- GI50 [9]: 0.152 µM (active)
- GI50 [10]: 2.67 µM (inactive)
- GI50 [11]: 3.17 µM (inactive)
- GI50 [12]: 2.72 µM (inactive)
- GI50 [13]: 4.58 µM (inactive)
- GI50 [14]: 0.284 µM (active)
- GI50 [15]: 1.5 µM (inactive)
- GI50 [16]: 3.12 µM (inactive)
- GI50 [17]: 2.21 µM (inactive)
- GI50 [19]: 4.58 µM (inactive)
- GI50 [20]: 1.07 µM (active)
- GI50 [21]: 1.1 µM
- GI50 [22]: 3.28 µM (inactive)
- GI50 [23]: > 10 µM (inactive)
- GI50 [24]: 3.38 µM (inactive)
- GI50 [25]: 7.48 µM (inactive)
- GI50 [26]: 0.0151 µM (active)
- GI50 [27]: 1.81 µM (inactive)
- GI50 [28]: 1.77 µM (inactive)
- GI50 [30]: > 10 µM (inactive)
- GI50 [31]: 1.95 µM (inactive)
- GI50 [32]: 0.169 µM (active)
- GI50 [33]: 3.3 µM (inactive)
- GI50 [34]: 2.55 µM (inactive)
- GI50 [35]: 1.64 µM (inactive)
- GI50 [36]: 2.39 µM (inactive)
- GI50 [37]: 0.604 µM (active)
- GI50 [38]: 1.1 µM (active)
- GI50 [39]: > 10 µM (inactive)
- GI50 [40]: 4.95 µM (inactive)
- GI50 [41]: 3.44 µM (inactive)
- GI50 [42]: 2.01 µM (inactive)
- GI50 [43]: > 10 µM (inactive)
- GI50 [44]: > 10 µM (inactive)
- GI50 [45]: 1.37 µM (inactive)
- GI50 [46]: > 10 µM (inactive)
- GI50 [47]: > 10 µM (inactive)
- GI50 [48]: 2.96 µM (inactive)
- GI50 [49]: > 10 µM (inactive)
- GI50 [50]: 4.79 µM (inactive)
- GI50 [51]: 0.145 µM (active)
- GI50 [52]: 1.17 µM (inactive)
- GI50 [53]: 0.239 µM (active)
- GI50 [54]: 2.16 µM (inactive)
- GI50 [55]: 2.07 µM (inactive)
- GI50 [56]: 1.08 µM (active)
- GI50 [58]: 0.447 µM (active)
- GI50 [59]: 4.61 µM (inactive)
